Reference: patent US20100267561A1, “HERBICIDAL PYRIDAZINONE DERIVATIVES” (priority 2007, published 2010)

Columns and labels:
Assay in all cases: Test B pre-/postemergence plant response
Format in all cases: in vivo
[1] = tested on: yellow nutsedge (Cyperus esculentus)
Method in brief: (§1)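 Preemergence and postemergence (plants 2-18 cm, 1- to 4-leaf stage) applications used test chemicals in a non-phytotoxic solvent with surfactant. Plants were held in a greenhouse 13 to 15 days, then rated visually against controls on a 0-100 scale (0 no effect, 100 complete control).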

[2] = tested on: cocklebur (Xanthium strumarium); conditions: for Cocklebur plant response rating: 8 g ai/ha
Method in brief: as §1

[3] = tested on: woolly cupgrass (Eriochloa villosa)
Method in brief: as §1

[4] = tested on: green foxtail (Setaria viridis)
Method in brief: as §1

[5] = tested on: Russian thistle (Salsola iberica); conditions: Preemergence
Method in brief: as §1

[6] = tested on: bermudagrass (Cynodon dactylon); conditions: for Bermudagrass plant response rating: 8 g ai/ha
Method in brief: as §1

[7] = tested on: giant foxtail (Setaria faberii)
Method in brief: as §1

[8] = tested on: lambsquarters (Chenopodium album)
Method in brief: as §1

[9] = tested on: wheat (Triticum aestivum)
Method in brief: as §1

corn (Zea mays) = tested on: corn (Zea mays)
Method in brief: as §1

soybean (Glycine max) = tested on: soybean (Glycine max)
Method in brief: as §1

[10] = tested on: velvetleaf (Abutilon theophrasti)
Method in brief: as §1

[11] = tested on: goosegrass (Eleusine indica)
Method in brief: as §1

kochia (Kochia scoparia) = conditions: for Kochia plant response rating: postemergence, 0-100 scale; for Plant response rating, Kochia: Postemergence
Method in brief: as §1

[12] = Preemergence, 31 g ai/ha, scale 0 to 100 (0 no effect, 100 complete control)
[13] = Preemergence, 62 g ai/ha, scale 0 to 100
[14] = Preemergence, 8 g ai/ha, scale 0 to 100
[15] = Preemergence, 16 g ai/ha, scale 0 to 100
[16] = Preemergence, 16 g ai/ha, scale 0 to 100 (0 no effect, 100 complete control)
[17] = Preemergence, 31 g ai/ha, 0 to 100 scale, 0 no effect, 100 complete control
[18] = 31 g ai/ha, scale 0 to 100 (0 no effect, 100 complete control)
[19] = Preemergence, scale 0 to 100 (0 no effect, 100 complete control)
[20] = Preemergence, 62 g ai/ha, 0 to 100 scale, 0 no effect, 100 complete control
[21] = 8 g ai/ha, postemergence, 0-100 scale
[22] = 16 g ai/ha, postemergence, 0-100 scale
[23] = Postemergence, 31 g ai/ha, scale 0 to 100
[24] = Postemergence, 62 g ai/ha, scale 0 to 100, 0 no effect, 100 complete control
[25] = Postemergence, 16 g ai/ha, scale 0 to 100

Cc1cc(-c2ccc(Cl)cc2)nn1-c1c(OS(=O)(=O)c2ccccc2[N+](=O)[O-])cnn(C)c1=O [Compound 51]
75: Plant response rating, Goosegrass [11, 17]
60: Bermudagrass plant response rating [6, 19] | Plant response rating, Wheat [9, 20] | Plant response rating, Corn (corn (Zea mays); [17]) | Goosegrass plant response rating [11, 15]
10: Plant response rating, Wheat [9, 12]
90: Plant response rating, Cupgrass, Woolly [3, 17] | Foxtail, Green plant response rating [4, 15] | Plant response rating, Goosegrass [11, 13]
80: Cupgrass, Woolly plant response rating [3, 15] | Foxtail, Giant plant response rating [7, 14] | Plant response rating, Corn (corn (Zea mays); [13])
0: Plant response rating, Nutsedge, Yellow [1, 12] | Plant response rating, Nutsedge, Yellow [1, 13] | Nutsedge, Yellow plant response rating [1, 14] | Nutsedge, Yellow plant response rating [1, 15] | Plant response rating, Cocklebur [2, 16] | Plant response rating, Cocklebur [2, 17] | Plant response rating, Cocklebur [2, 13] | Cocklebur plant response rating ([2]; Preemergence, scale 0 to 100) | Cupgrass, Woolly plant response rating [3, 14] | Plant response rating, Russian Thistle [5, 18] | Plant response rating, Russian Thistle ([5]; 62 g ai/ha, scale 0 to 100) | Russian Thistle plant response rating ([5]; 8 g ai/ha, scale 0 to 100) | Russian Thistle plant response rating ([5]; 16 g ai/ha, scale 0 to 100) | Plant response rating, Lambsquarters [8, 17] | Plant response rating, Lambsquarters [8, 13] | Wheat plant response rating [9, 14] | Wheat plant response rating [9, 15] | Plant response rating, Soybean (soybean (Glycine max); [12]) | Plant response rating, Soybean (soybean (Glycine max); [13]) | Soybean plant response rating (soybean (Glycine max); [14]) | Soybean plant response rating (soybean (Glycine max); [15]) | Plant response rating, Velvetleaf [10, 12] | Plant response rating, Velvetleaf [10, 20] | Velvetleaf plant response rating [10, 14] | Velvetleaf plant response rating [10, 15] | Goosegrass plant response rating [11, 14]
98: Plant response rating, Foxtail, Green [4, 17]
50: Foxtail, Green plant response rating [4, 14]
100: Plant response rating, Cupgrass, Woolly [3, 13] | Plant response rating, Foxtail, Green [4, 13] | Plant response rating, Bermudagrass [6, 16] | Plant response rating, Bermudagrass [6, 17] | Plant response rating, Bermudagrass [6, 13] | Plant response rating, Foxtail, Giant [7, 17] | Plant response rating, Foxtail, Giant [7, 13] | Foxtail, Giant plant response rating [7, 15]

C#CCOC(=O)Oc1cnn(C)c(=O)c1-n1nc(-c2ccc(Cl)cc2)cc1C [Compound 58]
20: Plant response rating, Russian Thistle [5, 18]
75: Cupgrass, Woolly plant response rating [3, 14]
85: Goosegrass plant response rating [11, 15]
0: Plant response rating, Nutsedge, Yellow [1, 12] | Plant response rating, Nutsedge, Yellow [1, 20] | Nutsedge, Yellow plant response rating [1, 14] | Nutsedge, Yellow plant response rating [1, 15] | Plant response rating, Cocklebur [2, 16] | Plant response rating, Cocklebur [2, 12] | Plant response rating, Cocklebur [2, 20] | Cocklebur plant response rating ([2]; Preemergence, scale 0 to 100) | Russian Thistle plant response rating ([5]; 8 g ai/ha, scale 0 to 100) | Russian Thistle plant response rating ([5]; 16 g ai/ha, scale 0 to 100) | Lambsquarters plant response rating [8, 14] | Lambsquarters plant response rating [8, 15] | Wheat plant response rating [9, 15] | Corn plant response rating (corn (Zea mays); [14]) | Corn plant response rating (corn (Zea mays); [15]) | Plant response rating, Soybean (soybean (Glycine max); [12]) | Plant response rating, Soybean (soybean (Glycine max); [20]) | Soybean plant response rating (soybean (Glycine max); [14]) | Soybean plant response rating (soybean (Glycine max); [15]) | Plant response rating, Velvetleaf [10, 12] | Plant response rating, Velvetleaf [10, 20] | Velvetleaf plant response rating [10, 14] | Velvetleaf plant response rating [10, 15]
95: Foxtail, Giant plant response rating [7, 15] | Plant response rating, Lambsquarters [8, 12] | Plant response rating, Goosegrass [11, 12]
70: Goosegrass plant response rating [11, 14]
80: Cupgrass, Woolly plant response rating [3, 15] | Plant response rating, Wheat [9, 20] | Plant response rating, Corn (corn (Zea mays); [20])
55: Foxtail, Giant plant response rating [7, 14] | Plant response rating, Corn (corn (Zea mays); [12])
40: Plant response rating, Wheat [9, 12]
60: Plant response rating, Russian Thistle ([5]; 62 g ai/ha, 0 to 100 scale, 0 no effect, 100 complete control)
100: Plant response rating, Cupgrass, Woolly [3, 12] | Plant response rating, Cupgrass, Woolly [3, 20] | Plant response rating, Foxtail, Green [4, 12] | Plant response rating, Foxtail, Green [4, 20] | Foxtail, Green plant response rating [4, 14] | Foxtail, Green plant response rating [4, 15] | Bermudagrass plant response rating [6, 19] | Plant response rating, Bermudagrass [6, 16] | Plant response rating, Bermudagrass [6, 12] | Plant response rating, Bermudagrass [6, 20] | Plant response rating, Foxtail, Giant [7, 12] | Plant response rating, Foxtail, Giant [7, 20] | Plant response rating, Lambsquarters [8, 20] | Plant response rating, Goosegrass [11, 20]

COCc1cc(-c2ccc(Br)cc2)nn1-c1c(O)cnn(C)c1=O [Compound 68]
5: Plant response rating, Goosegrass [11, 24]
10: Foxtail, Green plant response rating [4, 21] | Foxtail, Giant plant response rating [7, 21]
60: Plant response rating, Cupgrass, Woolly [3, 24] | Plant response rating, Foxtail, Green [4, 23] | Plant response rating, Foxtail, Giant [7, 25]
95: Plant response rating, Foxtail, Green [4, 24] | Plant response rating, Corn (corn (Zea mays); [24])
30: Plant response rating, Cupgrass, Woolly [3, 23] | Plant response rating, Corn (corn (Zea mays); [23])
65: Plant response rating, Foxtail, Giant [7, 23]
50: Plant response rating, Foxtail, Green [4, 25]
90: Plant response rating, Foxtail, Giant [7, 24]
0: Nutsedge, Yellow plant response rating [1, 21] | Nutsedge, Yellow plant response rating [1, 22] | Plant response rating, Nutsedge, Yellow [1, 23] | Plant response rating, Nutsedge, Yellow [1, 24] | Cocklebur plant response rating ([2]; postemergence, 0-100 scale) | Plant response rating, Cocklebur [2, 25] | Plant response rating, Cocklebur [2, 23] | Plant response rating, Cocklebur [2, 24] | Cupgrass, Woolly plant response rating [3, 21] | Plant response rating, Cupgrass, Woolly [3, 25] | Bermudagrass plant response rating ([6]; postemergence, 0-100 scale) | Plant response rating, Bermudagrass [6, 25] | Plant response rating, Bermudagrass [6, 23] | Plant response rating, Bermudagrass [6, 24] | Kochia plant response rating (kochia (Kochia scoparia); 8 g ai/ha) | Kochia plant response rating (kochia (Kochia scoparia); 16 g ai/ha) | Plant response rating, Kochia (kochia (Kochia scoparia); 31 g ai/ha, scale 0 to 100) | Plant response rating, Kochia (kochia (Kochia scoparia); 62 g ai/ha, scale 0 to 100, 0 no effect, 100 complete control) | Lambsquarters plant response rating [8, 21] | Lambsquarters plant response rating [8, 22] | Plant response rating, Lambsquarters [8, 23] | Plant response rating, Lambsquarters [8, 24] | Wheat plant response rating [9, 21] | Wheat plant response rating [9, 22] | Plant response rating, Wheat [9, 23] | Plant response rating, Wheat [9, 24] | Corn plant response rating (corn (Zea mays); [21]) | Plant response rating, Corn (corn (Zea mays); [25]) | Soybean plant response rating (soybean (Glycine max); [21]) | Soybean plant response rating (soybean (Glycine max); [22]) | Plant response rating, Soybean (soybean (Glycine max); [23]) | Plant response rating, Soybean (soybean (Glycine max); [24]) | Velvetleaf plant response rating [10, 21] | Velvetleaf plant response rating [10, 22] | Plant response rating, Velvetleaf [10, 23] | Plant response rating, Velvetleaf [10, 24] | Goosegrass plant response rating [11, 21] | Goosegrass plant response rating [11, 22] | Plant response rating, Goosegrass [11, 23]
